From PubChem BioAssay (NCI)
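GI50 is the concentration that inhibits growth by half. The concentration for full growth arrest is given as TGI.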

Key:
Assay in all cases: NCI-60 cell line screen, 384-well format
SN12C renal = tested on: SN12C renal
CAKI-1 renal = tested on: CAKI-1 renal
NCI-H522 lung = tested on: NCI-H522 lung
HOP-92 NSCLC = tested on: HOP-92 NSCLC
HOP-62 NSCLC = tested on: HOP-62 NSCLC
ACHN renal = tested on: ACHN renal
OVCAR-8 ovarian = tested on: OVCAR-8 ovarian
MOLT-4 leukemia = tested on: MOLT-4 leukemia
SF-295 CNS = tested on: SF-295 CNS
DU-145 prostate = tested on: DU-145 prostate
EKVX NSCLC = tested on: EKVX NSCLC
A549 NSCLC = tested on: A549 NSCLC
UO-31 renal = tested on: UO-31 renal
NCI/ADR-RES ovarian = tested on: NCI/ADR-RES ovarian
T-47D breast = tested on: T-47D breast
PC-3 prostate = tested on: PC-3 prostate
U251 glioblastoma = tested on: U251 glioblastoma
HCT-116 colon = tested on: HCT-116 colon
SNB-75 CNS = tested on: SNB-75 CNS
MDA-MB-468 breast = tested on: MDA-MB-468 breast
NCI-H322M lung = tested on: NCI-H322M lung
OVCAR-4 ovarian = tested on: OVCAR-4 ovarian
RPMI-8226 leukemia = tested on: RPMI-8226 leukemia
KM12 colon = tested on: KM12 colon
HCC-2998 colon = tested on: HCC-2998 colon
HS 578T breast = tested on: HS 578T breast
HT29 colon = tested on: HT29 colon
MDA-MB-231 breast = tested on: MDA-MB-231 breast
K-562 leukemia = tested on: K-562 leukemia
COLO 205 colon = tested on: COLO 205 colon
BT-549 breast = tested on: BT-549 breast
IGROV1 ovarian = tested on: IGROV1 ovarian
UACC-62 melanoma = tested on: UACC-62 melanoma
SW-620 colon = tested on: SW-620 colon
SR leukemia = tested on: SR leukemia
HL-60(TB) leukemia = tested on: HL-60(TB) leukemia
NCI-H460 NSCLC = tested on: NCI-H460 NSCLC
SK-MEL-5 melanoma = tested on: SK-MEL-5 melanoma
MALME-3M melanoma = tested on: MALME-3M melanoma
UACC-257 melanoma = tested on: UACC-257 melanoma
CCRF-CEM leukemia = tested on: CCRF-CEM leukemia
SF-539 CNS = tested on: SF-539 CNS
SF-268 CNS = tested on: SF-268 CNS
MCF7 breast = tested on: MCF7 breast
OVCAR-3 ovarian = tested on: OVCAR-3 ovarian
NCI-H226 lung = tested on: NCI-H226 lung
MDA-MB-435 melanoma = tested on: MDA-MB-435 melanoma
SK-OV-3 ovarian = tested on: SK-OV-3 ovarian
LOX IMVI melanoma = tested on: LOX IMVI melanoma
HCT-15 colon = tested on: HCT-15 colon
786-0 renal = tested on: 786-0 renal
TK-10 renal = tested on: TK-10 renal
A498 renal = tested on: A498 renal
NCI-H23 lung = tested on: NCI-H23 lung
SK-MEL-28 melanoma = tested on: SK-MEL-28 melanoma
RXF 393 renal = tested on: RXF 393 renal
M14 melanoma = tested on: M14 melanoma
SNB-19 CNS = tested on: SNB-19 CNS

COCC(=O)NC/C=C/c1ccc2ncnc(Nc3ccc(Oc4ccc(C)nc4)c(C)c3)c2c1 showed a GI50 (SN12C renal) of 11.6 µM, a TGI (SN12C renal) of 26.5 µM and a GI50 (CAKI-1 renal) of 10.9 µM. For the same molecule, the TGI (CAKI-1 renal) was 23.6 µM, the GI50 (NCI-H522 lung) was 1.29 µM and the TGI (NCI-H522 lung) was 17.3 µM. The GI50 (HOP-92 NSCLC) was 13.4 µM, the TGI (HOP-92 NSCLC) was 26.4 µM and the GI50 (HOP-62 NSCLC) was 15.4 µM. For the same molecule, the TGI (HOP-62 NSCLC) was 29.6 µM, the GI50 (ACHN renal) was 12.1 µM and the TGI (ACHN renal) was 29.1 µM. The GI50 (OVCAR-8 ovarian) was 3.59 µM, the TGI (OVCAR-8 ovarian) was 13.1 µM and the GI50 (MOLT-4 leukemia) was 6.77 µM. It also gave a TGI (MOLT-4 leukemia) of 18.8 µM, a GI50 (SF-295 CNS) of 14 µM and a TGI (SF-295 CNS) of 27.3 µM. The GI50 (DU-145 prostate) was 12.9 µM, the TGI (DU-145 prostate) was 29.3 µM and the GI50 (EKVX NSCLC) was 9.72 µM. For the same molecule, the TGI (EKVX NSCLC) was 22.6 µM, the GI50 (A549 NSCLC) was 11.5 µM and the TGI (A549 NSCLC) was 23.9 µM. The GI50 (UO-31 renal) was 12.6 µM, the TGI (UO-31 renal) was 25.6 µM and the GI50 (NCI/ADR-RES ovarian) was 15 µM. It also gave a TGI (NCI/ADR-RES ovarian) of 29.6 µM, a GI50 (T-47D breast) of 4.62 µM and a TGI (T-47D breast) of 17.6 µM. It also gave a GI50 (PC-3 prostate) of 13.9 µM, a TGI (PC-3 prostate) of 28.3 µM and a GI50 (U251 glioblastoma) of 15 µM. For the same molecule, the TGI (U251 glioblastoma) was 28.4 µM, the GI50 (HCT-116 colon) was 14.2 µM and the TGI (HCT-116 colon) was 27.5 µM. It also gave a GI50 (SNB-75 CNS) of 15.9 µM, a TGI (SNB-75 CNS) of 29.6 µM and a GI50 (MDA-MB-468 breast) of 2.19 µM. For the same molecule, the TGI (MDA-MB-468 breast) was 6.66 µM, the GI50 (NCI-H322M lung) was 10.7 µM and the TGI (NCI-H322M lung) was 25.8 µM. For the same molecule, the GI50 (OVCAR-4 ovarian) was 13.3 µM, the TGI (OVCAR-4 ovarian) was 26.3 µM and the GI50 (RPMI-8226 leukemia) was 4.48 µM. For the same molecule, the TGI (RPMI-8226 leukemia) was 15.3 µM, the GI50 (KM12 colon) was 15.8 µM and the TGI (KM12 colon) was 29.8 µM. For the same molecule, the GI50 (HCC-2998 colon) was 17.5 µM, the TGI (HCC-2998 colon) was 31.4 µM and the GI50 (HS 578T breast) was 11.9 µM. For the same molecule, the TGI (HS 578T breast) was 24.2 µM, the GI50 (HT29 colon) was 15.1 µM and the TGI (HT29 colon) was 28.5 µM. It also gave a GI50 (MDA-MB-231 breast) of 10.7 µM, a TGI (MDA-MB-231 breast) of 23.3 µM and a GI50 (K-562 leukemia) of 5.45 µM. For the same molecule, the TGI (K-562 leukemia) was 18.2 µM, the GI50 (COLO 205 colon) was 12.3 µM and the TGI (COLO 205 colon) was 24.8 µM. For the same molecule, the GI50 (BT-549 breast) was 13.7 µM, the TGI (BT-549 breast) was 26.8 µM and the GI50 (IGROV1 ovarian) was 11.7 µM. It also gave a TGI (IGROV1 ovarian) of 24.5 µM, a GI50 (UACC-62 melanoma) of 14.9 µM and a TGI (UACC-62 melanoma) of 28.2 µM. It also gave a GI50 (SW-620 colon) of 11.1 µM, a TGI (SW-620 colon) of 23.2 µM and a GI50 (SR leukemia) of 4.1 µM. For the same molecule, the TGI (SR leukemia) was 8.2 µM, the GI50 (HL-60(TB) leukemia) was 3.53 µM and the TGI (HL-60(TB) leukemia) was 10.3 µM. It also gave a GI50 (NCI-H460 NSCLC) of 4.25 µM, a TGI (NCI-H460 NSCLC) of 13.2 µM and a GI50 (SK-MEL-5 melanoma) of 3.38 µM. For the same molecule, the TGI (SK-MEL-5 melanoma) was 13.6 µM, the GI50 (MALME-3M melanoma) was 14.3 µM and the TGI (MALME-3M melanoma) was 27.4 µM. For the same molecule, the GI50 (UACC-257 melanoma) was 14.9 µM, the TGI (UACC-257 melanoma) was 28.3 µM and the GI50 (CCRF-CEM leukemia) was 2.86 µM. It also gave a TGI (CCRF-CEM leukemia) of 7.8 µM, a GI50 (SF-539 CNS) of 2.66 µM and a TGI (SF-539 CNS) of 6.57 µM. It also gave a GI50 (SF-268 CNS) of 16.7 µM, a TGI (SF-268 CNS) of 31 µM and a GI50 (MCF7 breast) of 4.11 µM. The TGI (MCF7 breast) was 14.7 µM, the GI50 (OVCAR-3 ovarian) was 14.3 µM and the TGI (OVCAR-3 ovarian) was 27.8 µM. For the same molecule, the GI50 (NCI-H226 lung) was 16.4 µM, the TGI (NCI-H226 lung) was 31.9 µM and the GI50 (MDA-MB-435 melanoma) was 15.6 µM. For the same molecule, the TGI (MDA-MB-435 melanoma) was 29.1 µM, the GI50 (SK-OV-3 ovarian) was 11.3 µM and the TGI (SK-OV-3 ovarian) was 23.5 µM. For the same molecule, the GI50 (LOX IMVI melanoma) was 12 µM, the TGI (LOX IMVI melanoma) was 24.6 µM and the GI50 (HCT-15 colon) was 13 µM. It also gave a TGI (HCT-15 colon) of 26.4 µM, a GI50 ([…]-0 renal) of 16 µM and a TGI (786-0 renal) of 29.6 µM. The GI50 (TK-10 renal) was 12 µM, the TGI (TK-10 renal) was 24.7 µM and the GI50 (A498 renal) was 14.3 µM. For the same molecule, the TGI (A498 renal) was 27.6 µM, the GI50 (NCI-H23 lung) was 15.1 µM and the TGI (NCI-H23 lung) was 28.8 µM. For the same molecule, the GI50 (SK-MEL-28 melanoma) was 17.1 µM, the TGI (SK-MEL-28 melanoma) was 31.1 µM and the GI50 (RXF 393 renal) was 10.7 µM. It also gave a TGI (RXF 393 renal) of 22.7 µM, a GI50 (M14 melanoma) of 17.1 µM and a TGI (M14 melanoma) of 30.9 µM. It also gave a GI50 (SNB-19 CNS) of 15.2 µM and a TGI (SNB-19 CNS) of 28.9 µM.
